The term IC50 denotes the point on the concentration scale where inhibition reaches its midpoint. The ILS is how much longer treated animals lived than controls. The low end stands for little gain in survival, the high end for much gain in survival. As a reminder, the LD50 is the dose at which mortality reaches 50%. Low values mean a more toxic substance, high ones a less toxic substance.

Here are results for ten compounds from patent US5380759A, “Methyl N-[6-(3,4,5-trimethoxybenzloxy)imidazo[1,2-b]pyridazin-2-zyl]carbamate used to treat leukemia” (priority 1987, dated 1995).

The test system of one series is tubulin. Briefly: Turbidimetric assay of tubulin polymerisation. Format: biochemical, horse. Particulars: 37° C., increase in A350nm 10 min after lag phase; read-out: Total tubulin polymerisation IC50. Here is the method:
A) Tubulin Polymerisation Assay
1. Preparation of tubulin
All manipulations are performed at 4° C. unless otherwise specified. The horse brain is washed in ice-cold BBG buffer and superficial meninges and blood vessels removed. After weighing, cerebral cortices are chopped, homogenised in 75 ml BBG buffer/100 g brain, centrifuged at 6500 g for 15 min and after removal of […], re-centrifuged at 100,000 g for 75 min. The volume of the supernatant (Vml) is measured and V/10 ml 10 mM GTP (Li salt) in H2 O added. The mixture is incubated in sealed centrifuge tubes (30 min, 34° C.) in a shaking water bath to polymerise the tubulin. After polymerisation the tubes are balanced and centrifuged at 100,000 g, (1 h at 27° C.) in a pre-warmed rotor. The high-speed pellet is resuspended in V/4 ml BB buffer and the preparation stirred on ice for 30 min and centrifuged at 100,000 g (1 h at 4° C.) to remove the cold-stable microtubules. An equal volume of BB2G buffer is added to the supernatant which is frozen rapidly in 5 ml samples in plastic weighing dishes floated on a solid CO2 /ethanol slurry, and stored overnight at -80° C. After ca. 18 hours the frozen samples of tubulin are thawed, 10 mM GTP in H2 O added to give a final concentration of 1 mM, and the new volume (Wml), is measured. The polymerisation/depolymerisation cycle is repeated exactly as above but substituting W for V to give twice-cycled tubulin.
2. Turbidimetric Assay of Tubulin Polymerisation
Apparatus: recording spectrophotometer with a 6-position, thermostatted cuvette holder; full scale deflection=0.2 absorbance units.
In a 1 ml spectrophotometer cuvette are mixed 100 μl 10 mM GTP (Li salt) made up in BB buffer, 10 μl H2 O or DMSO-depending on selected drug solvent, BB buffer and tubulin preparation such that the final increase in A350nm is 0.15 units after 16 mins (approx. 100 μl of tubulin prep. or 2.5 mg protein) in a final volume of 1 ml at 37° C. All reagents are stored on ice.
Polymerisation is initiated by raising the temperature to 37° C. and the increase in A350nm of triplicate samples against a reference cuvette is recorded. The reference sample includes a similar incubation mixture either without tubulin or with the addition of 1 mM Ca^2+. The increase over initial A350nm 10 min after the completion of lag phase (control polymerisation is 80% complete within this time) is calculated and expressed as a percentage of the control value, for a range of drug concentrations. The drug concentration required to give a 50% change (IC50) in the control value is determined.

The next series relates to P388/O tumour. Briefly: Lymphocytic leukaemia P388/O test. Format: in vivo, mouse. Here is the method:
C. Lymphocytic Leukemia P388/O Test
CD2-F1 mice, of the same sex, weighing within a 3 gram range surrounding 20 g, are used for this test. Control and test animals are injected intraperitoneally with a suspension of 10^6 viable P388/O tumour cells on day 0. In each test several dose levels which bracket the LD20 for the compound are evaluated; each dose level group contains 6 animals. The test compounds are prepared either in physiologic saline containing 0.05% Tween 80 or distilled water containing 5% dextrose and are administered intraperitoneally on days 1,5 and 9 relative to tumour implant. Doses are on a mg/kg basis according to individual animals' body weights. The day of death for each animal is recorded and the median day of death identified for each group. The difference between the median survival time for treated and control groups is expressed as a percentage increase in life span (% ILS).

The next series can be described thus: LD20 (Mouse). Format: in vivo. Particulars: i.p. days 1, 5 and 9, CD2-F1 mice, observed up to 14 days.
Another series has as its system P388 D1 cells. Briefly: P388 D1 colony-forming assay. Particulars: Mus musculus, P388D1; 24 h exposure, 14 days colony growth; read-out: IC50 colony formation. The class given is cell-based. Here is the method:
B) P338D1 Colony-forming Assay
In this assay, cells from an in vitro-adapted line of the mouse lymphoid neoplasm, P388 are first exposed to serially diluted concentrations of test compound over a 24 hour period in culture. Thereafter, the ability of such treated cells to form discrete colonies over a 14 day period after resuspension in a semi-solid drug-free medium is determined.
Initially cells in log growth are plated into individual 25 cm^2 tissue culture flasks each containing a final volume of 5 mls of Hepes buffered RPMI 1640 culture medium supplemented with 10 percent foetal calf serum, antibiotics and test compound. All compounds are formulated initially at appropriate concentrations in DMSO, 25 microliters of which is then added to each flask. All compounds are evaluated at concentrations ranging serially in four fold decrements from a top concentration some four fold greater than that already known to inhibit the proliferation of these cells by about 80 to 90 percent in the primary proliferative assay.
After 24 hrs exposure to the test compound the cells are counted and a known number of live cells transferred to a 15 ml centrifuge tube to which 4 mls of a 0.25 percent low temperature gelling agarose solution in complete RPMI tissue culture medium is then added. After 13 days incubation at 37° C., 1 ml of 1% p-Iodonitrotetrazolium violet is added to the top of each tube and allowed to permeate through the agarose for a further 24 to 48 hrs. This dye is metabolised by living cells to produce an insoluble red crystalline product which facilitates counting of the colonies. Samples are taken from each tube and the number of colonies containing a minimum of 50 cells is determined. The concentration of compound necessary to inhibit colony formation by 50 percent relative to that of control cells incubated under identical conditions but in the absence of the test compound is determined.

Series [1] deals with DLD-1 human colon carcinoma cells. Briefly: In vitro activity against human tumour cell line DLD-1 (proliferation). Particulars: DLD-1, 96 h, methylene blue, read-out: IC50. Format: cell-based. As for the experimental part: (§1) Cells from the human tumour cell lines DLD-1, HCT-116, WiDr and A549 are exposed to serially diluted concentrations of test compounds over a 96 hour period in culture. The ability of such cells to proliferate over the test period is determined.
(§2) Cells in log growth are plated into 96 well multiwell tissue culture dishes in 100 μl/well of RPMI 1640 culture medium supplemented with 10% foetal calf serum, antibiotics and test compound. All compounds are formulated initially at appropriate concentrations in DMSO, the final concentrations in this solvent being twenty times that required in the plate. A final 1 in 10 dilution in complete medium is then made before adding 100 μl to each well of the plate. All compounds are evaluated at concentrations ranging serially in four fold decrements from a top concentration some four fold greater than that already known to inhibit the proliferation of cells from the mouse lymphoid neoplasm, P388D1 by about 80 to 90 percent in a primary proliferative assay.
(§3) After 96 hours the proliferation of cells exposed to test compound is compared with control untreated cells by one of two methods:
a) Culture supernatants are aspirated and cells fixed and stained by adding a solution of methylene blue (5 g per liter of 50% ethanol: water, 100 μl/well). After 30 minutes at room temperature unbound stain is washed off by immersing plates in water. Stained cells are solubilised overnight using 1% Sarkosyl (Sigma) in phosphate-buffered saline (100 μl/well). Absorbances are read by an ELISA plate spectrophotometer at a wavelength of 620 nm. The IC50 is defined as that concentration of drug which decreases absorbance to 50% of that in control (drug-free) cultures. This method is used for the DLD-1 cell line.

In series [2] the test system is WiDr human colon adenocarcinoma cells. Briefly: In vitro activity against human tumour cell line WiDr (proliferation). Particulars: 96 h, MTT, read-out: IC50. The class given is cell-based. Here is the method: as §1, §2, §3
(§4) b) 20 μl of MTT (5 mg/ml in PBS) is added to each well. After an incubation period of 4 hours the medium from each well is aspirated and replaced with 200 μl DMSO to dissolve the formazan crystals formed. Absorbances are read by an ELISA plate spectrophotometer at a wavelength of 540 nm. The IC50 is defined as that concentration of drug which decreases absorbance to 50% of that in control (drug-free) cultures. This method is used for the WiDr, HCT-116 and A549 cell lines.

For series [3], the system named is HCT-116 human colon carcinoma cells. Briefly: In vitro activity against human tumour cell line HCT-116 (proliferation). Particulars: HCT-116, 96 h, MTT, read-out: IC50. Format: cell-based. As for the experimental part: as §1, §2, §3, §4
The test system of series [4] is A549 human lung carcinoma cells. Nature of the series: In vitro activity against human tumour cell line A549 (proliferation). Format: cell-based. Particulars: A549, 96 h, MTT, read-out: IC50. Here is the method: as §1, §2, §3, §4
The mark [5] stands for this setting: Mus musculus, P388, ip, 675 mg/kg i.p. days 1, 5 and 9.
Setting [6] is: Mus musculus, P388, ip, 200 mg/kg i.p. days 1, 5 and 9.

Bounds are passed on as bounds.

Turning to `COC(=O)Nc1cn2nc(OCc3cccc(C)c3)ccc2n1` [Example 12, Methyl N-[6-(3-methylbenzyloxy)imidazo[1,2-b]pyridazin-2-yl]carbamate], in the series on tubulin, the IC50 is 1210 nM. This compound registered an ILS at 675 mg/kg with P388/O tumour (setting [5]) of 170%. Besides, in “LD20 (Mouse)”, the LD50 was greater than 450 mg/kg.

In the case of `COC(=O)N(C)c1cn2nc(OCc3cc(OC)c(OC)c(OC)c3)ccc2n1` [Example 26, Methyl N-[N-Methyl-6-(3,4,5-trimethoxybenzyloxy)imidazo[1,2-b]pyridazin-2-yl]carbamate], the ILS at 300 mg/kg with P388/O tumour (Mus musculus, P388, ip, 300 mg/kg i.p. days 1, 5 and 9) turned out to be 263%. Further, the LD50 in the series “LD20 (Mouse)” came to 450 mg/kg.

`COC(=O)Nc1cn2nc(OCc3cc(OC)cc(OC)c3)ccc2n1` [Example 11, Methyl N-[6-(3,5-Dimethoxybenzyloxy)imidazo[1,2-b)pyridazin-2-yl]carbamate]: the IC50 in the series on tubulin came out at 4240 nM. Moreover, the IC50 with P388 D1 cells came to 41 nM. In addition, in the series with P388/O tumour (675 mg/kg i.p. days 1, 5 and 9), the “30 Day survivors” value is given as 1/6 and the “60 Day Survivors” value was 0/6. Moreover, the ILS at 675 mg/kg in the series with P388/O tumour (setting [5]) amounted to 155%. In “LD20 (Mouse)”, this compound yielded an LD50 greater than 450 mg/kg.

`COC(=O)Nc1cn2nc(OCc3cc(OC)c(OC)c(OC)c3Br)ccc2n1` [Example 31, Methyl N-[6-(2-bromo-3,4,5-trimethoxybenzyloxy)imidazo[1,2-b]pyridazin-2-yl]carbamate] displayed an LD50 in “LD20 (Mouse)” of 165 mg/kg.

Turning to `COCCOC(=O)Nc1cn2nc(OCc3cc(OC)c(OC)c(OC)c3)ccc2n1` [Example 8, 2-Methoxyethyl N-[6-(3,4,5-trimethoxybenzyloxy)imidazo[1,2-b]pyridazin-2-yl]carbamate], the IC50 is 230 nM in the series with tubulin; 2.93 nM in the series with P388 D1 cells; 8.82 nM in series [1]; 41 nM in series [2]; 20.5 nM in series [3]; 39 nM in series [4]. Besides, the ILS at 10 mg/kg in the series on P388/O tumour (Mus musculus, P388, ip, 10 mg/kg i.p. days 1, 5 and 9) is 44%. This compound also had an LD50 in “LD20 (Mouse)” of 15 mg/kg.

On to `CCOC(=O)Nc1cn2nc(OCc3cc(OC)c(OC)c(OC)c3)ccc2n1` [Example 7, Ethyl N-[6-(3,4,5-trimethoxybenzyloxy)imidazo[1,2-b]pyridazin-2-yl]carbamate], for which the IC50 in the series with tubulin was 520 nM; with P388 D1 cells, 6.34 nM; in series [1] it was 5.92 nM; in series [2] it was 19.7 nM; in series [3] it was 8.25 nM; in series [4], 22.4 nM. The ILS at 5 mg/kg in the series with P388/O tumour (Mus musculus, P388, ip, 5 mg/kg i.p. days 1, 5 and 9) was determined as 111%. The compound further returned an LD50 in the series “LD20 (Mouse)” of 15 mg/kg.

On to `CCCOC(=O)Nc1cn2nc(OCc3cc(OC)c(OC)c(OC)c3)ccc2n1` [Example 4, n-Propyl N-[6-(3,4,5-trimethoxybenzyloxy)imidazo[1,2-b]pyridazin-2-yl]carbamate], for which the half-inhibitory concentration (IC50) worked out at 370 nM in the series on tubulin; 5.12 nM in the series on P388 D1 cells; 6.63 nM in series [1]; 11 nM in series [2]; 5.45 nM in series [3]; 20.8 nM in series [4]. For the same compound, the ILS at 20 mg/kg in the series with P388/O tumour (Mus musculus, P388, ip, 20 mg/kg i.p. days 1, 5 and 9) stood at 44%. Also, the LD50 in the series “LD20 (Mouse)” came out at 20 mg/kg.

Consider `CCOc1c(OC)cc(COc2ccc3nc(NC(=O)OC)cn3n2)cc1OC` [Example 33, Methyl N-[6-(3,5-dimethoxy-4-ethoxybenzyloxy)imidazo[1,2-b]pyridazin-2-yl]carbamate], for which, in the series with P388/O tumour ((Day 51), 200 mg/kg i.p. days 1, 5 and 9), the “60 Day Survivors” value is listed as 3/6. The same compound had an ILS at 200 mg/kg with P388/O tumour (setting [6]) of 240%.

For `COC(=O)Nc1cn2nc(OCc3cccc4ccccc34)ccc2n1` [Example 9, Methyl N-[6-(1-Naphthylmethyloxy)imidazo[1,2-b]pyridazin-2-yl]carbamate], the IC50 in the series on tubulin stood at 890 nM. Moreover, the ILS at 200 mg/kg in the series on P388/O tumour (setting [6]) came to 180%. This compound had an LD50 in the series “LD20 (Mouse)” of 450 mg/kg.

With `COC(=O)Nc1cn2nc(OCc3cccc(OC)c3OC)ccc2n1` [Example 32, Methyl N-[6-(2,3-dimethoxybenzyloxy)imidazo[1,2-b]pyridazin-2-yl]carbamate], in the series on P388/O tumour (750 mg/kg i.p. days 1, 5 and 9), the “60 Day Survivors” value was 1/6. The ILS at 750 mg/kg in the series with P388/O tumour (Mus musculus, P388, ip, 750 mg/kg i.p. days 1, 5 and 9) came out at 280%. In “LD20 (Mouse)”, the LD50 was greater than 450 mg/kg.
